From patent US10006913B2, “Fluorescent-HAP: a diagnostic stain for HBV cores in cells” (INDIANA UNIVERSITY RESEARCH AND TECHNOLOGY CORPORATION, priority 2013, dated 2018)

Key:
HBV capsid / Cp dimer = HBV capsid / Cp dimer (Hepatitis B virus genotype D subtype ayw, UniProt P03146); test: Size exclusion chromatography (Superose 6) of Cp assembly reactions (FIG. 2); format: binding
Experimental: In this experiment, 5 μM Cp was mixed with FL-HAPAlexaFluor® 488 (Compound 5) and then induced to assemble with 150 mM NaCl. Reactions were resolved on a Superose 6 column after 24 hours. Capsid elutes at 9.5 ml, aggregates at 8 ml, and Cp dimer at 18 ml.
(§1) FL-HAPAlexaFluor® 488 (Compound 5) retains several critical properties of HAP molecules. […] Most importantly, FL-HAPAlexaFluor® 488 (Compound 5) binds pre-assembled cores with high affinity.

control HepG2 cells = test: Fluorescence microscopy of stained control cells (FIG. 4); format: cell-based; conditions: camera on high gain
Excerpt: (§2) Various forms of FL-HAP may be synthesized thereby varying the resulting solubility properties of the fluorescent stain. The more soluble forms are particularly useful for observing HBV cores in solution or serum; they may also be useful for lightly staining intracellular HBV cores. The ability of the illustrative FL-HAP compound, FL-HAPAlexaFluor® 488 (Compound 5), to cross cell membranes and label HBV-expressing cells and, specifically, to label concentrations of HBV cores in those cells, is shown in FIG. 4. […] The more hydrophobic forms of FL-HAP (e.g., Compound 6 and Compound 7) are particularly useful for rapid staining of tissue samples.

HBV core protein (Cp) = HBV core protein (Cp) (Hepatitis B virus genotype D subtype ayw, UniProt P03146); test: HBV core protein (Cp) assembly rate, assembly induced by NaCl (FIG. 1); format: biochemical; conditions: 5 μM Cp, assembly induced with 150 mM NaCl, increasing concentration of stain
Sequence of HBV core protein (Cp) (P03146 whole entry): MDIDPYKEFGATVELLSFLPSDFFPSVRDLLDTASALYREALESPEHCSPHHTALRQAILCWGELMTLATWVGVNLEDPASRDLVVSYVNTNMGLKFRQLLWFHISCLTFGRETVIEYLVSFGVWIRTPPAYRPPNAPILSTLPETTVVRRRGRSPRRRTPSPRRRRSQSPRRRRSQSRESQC
Experimental: In this experiment, 5 μM Cp was incubated with or without FL-HAPAlexaFluor® 488 (Compound 5) prior to inducing assembly by addition of 150 mM NaCl.
as §1

capsid protein of HBV = capsid protein of HBV (Hepatitis B virus genotype D subtype ayw, UniProt P03146); test: Binding to the capsid protein of HBV (general statement)
Sequence of capsid protein of HBV (P03146 whole entry): as above

[1] = test system: HepG2 cells expressing RNA-filled HBV cores; test: Fluorescence microscopy of stained HBV-producing cells (FIG. 4); format: cell-based
Excerpt: as §2

HBV capsids = HBV capsids (Hepatitis B virus genotype D subtype ayw, UniProt P03146); test: Staining of pre-assembled HBV capsids, sucrose gradient and agarose gel electrophoresis (FIG. 3); format: binding
Sequence of HBV capsids (P03146 whole entry): as above
Experimental: Shown at left: Capsids stained with FL-HAPAlexaFluor® 488 (Compound 5) were separated on a sucrose gradient. […] Shown at right: Capsids, at the listed concentration, were stained with 25 nM FL-HAPAlexaFluor® 488 (Compound 5) prior to electrophoresis.
as §1

Sequence of HBV capsid / Cp dimer (P03146 whole entry): as above

COC(=O)C1=C(CN2CCN(C(=O)CCCNC(=O)c3ccc(-c4c5ccc(=N)c(S(=O)(=O)O)c-5oc5c(S(=O)(=O)O)c(N)ccc45)c(C(=O)O)c3)CC2)NC(c2ccccn2)=NC1c1ccc(F)cc1Cl (stereo not drawn) [Compound 5]
extent of assembly and size of complexes (HBV capsid / Cp dimer; 5 μM Cp, 150 mM NaCl, Superose 6 column after 24 hours, increasing stain): more assembly of progressively larger complexes | free HBV dimer remaining (HBV capsid / Cp dimer; SEC, as stain is added): progressively less free HBV dimer | formation of aberrant particles (HBV capsid / Cp dimer; light scattering in excess of free capsid, products run faster on SEC than capsid): leads to formation of aberrant particles | copies bound per HBV capsid (HBV capsid / Cp dimer; ratio of protein to fluorophore absorbance across SEC peaks): approximately 120 copies | species bound by the stain (capsid vs dimer) (HBV capsid / Cp dimer; visualized at 495 nm): only assembled Cp (i.e., capsid) is bound | fluorescent labeling of cells (control HepG2 cells): no green puncta are seen | effect on core protein assembly rate (HBV core protein (Cp)): accelerates core protein assembly | binding to the capsid protein of HBV (capsid protein of HBV): specific binding | fluorescent labeling of cells ([1]; HepG2 cells expressing RNA-filled HBV cores): numerous puncta and aggregates of puncta are seen | co-localization of fluorescence with Cp-specific antibodies ([1]; data not shown): co-localize with Cp-specific antibodies | dissociation from HBV capsids (HBV capsids): dissociates slowly | affinity for pre-assembled HBV cores (HBV capsids; SEC, sucrose gradient, agarose gel): high affinity | binding to capsids on electrophoresis (HBV capsids; capsids stained with 25 nM stain prior to electrophoresis, non-equilibrium conditions): binding was evident at nM concentrations

COC(=O)C1=C(CN2CCN(C(=O)CCCNC(=O)CCC3=[N+]4C(=Cc5c(C)cc(C)n5[B-]4(F)F)C=C3)CC2)NC(c2ccccn2)=NC1c1ccc(F)cc1Cl (stereo not drawn) [Compound 7]
binding to the capsid protein of HBV (capsid protein of HBV): specific binding

COC(=O)C1=C(CN2CCN(C(=O)CCCNC(=S)Nc3ccc(-c4c5ccc(=O)cc-5oc5cc(O)ccc45)c(C(=O)O)c3)CC2)NC(c2ccccn2)=NC1c1ccc(F)cc1Cl (stereo not drawn) [Compound 6]
binding to the capsid protein of HBV (capsid protein of HBV): specific binding
